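Results reflect a 48-hour exposure of cells in 96-well plates to compound at five concentrations. Here, GI50 denotes the concentration required for 50% inhibition of growth.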 Active and inactive are the calls of the source. Cut-off read from the data, not from the text of the source: active = GI50 up to about 1.1 µM and inactive = higher.
Assays:
Experiment in all cases: NCI anticancer screen, dose series, 48 h
M14 = tested on: M14
SK-OV-3 = tested on: SK-OV-3
UO-31 = tested on: UO-31
OVCAR-8 = tested on: OVCAR-8
RPMI-8226 = tested on: RPMI-8226
NCI-H460 = tested on: NCI-H460
OVCAR-4 = tested on: OVCAR-4
NCI-H522 = tested on: NCI-H522
EKVX = tested on: EKVX
SK-MEL-28 = tested on: SK-MEL-28
SW-620 = tested on: SW-620
HL-60 = tested on: HL-60
OVCAR-3 = tested on: OVCAR-3
K562 = tested on: K562
LXFL 529 = tested on: LXFL 529
SK-MEL-2 = tested on: SK-MEL-2
U-251 = tested on: U-251
OVCAR-5 = tested on: OVCAR-5
Malme-3M = tested on: Malme-3M
HT-29 = tested on: HT-29
CCRF-CEM = tested on: CCRF-CEM
RXF 631 = tested on: RXF 631
UACC-257 = tested on: UACC-257
M19-MEL = tested on: M19-MEL
DMS-114 = tested on: DMS-114
COLO 205 = tested on: COLO 205
A549 = tested on: A549
HCT-116 = tested on: HCT-116
DLD-1 = tested on: DLD-1
DMS-273 = tested on: DMS-273
SF-268 = tested on: SF-268
TK-10 = tested on: TK-10
IGROV-1 = tested on: IGROV-1
SK-MEL-5 = tested on: SK-MEL-5
KM12 = tested on: KM12
KM-20L2 = tested on: KM-20L2
SNB-78 = tested on: SNB-78
SF-539 = tested on: SF-539
ACHN = tested on: ACHN
786-0 = tested on: 786-0
UACC-62 = tested on: UACC-62
SF-295 = tested on: SF-295
SNB-75 = tested on: SNB-75
NCI-H23 = tested on: NCI-H23
NCI-H226 = tested on: NCI-H226
LOX IMVI = tested on: LOX IMVI
MOLT-4 = tested on: MOLT-4
SN12C = tested on: SN12C
SNB-19 = tested on: SNB-19
HOP-62 = tested on: HOP-62
HCC 2998 = tested on: HCC 2998
CAKI-1 = tested on: CAKI-1
A498 = tested on: A498
HOP-92 = tested on: HOP-92
RXF 393 = tested on: RXF 393
HCT-15 = tested on: HCT-15

Compound: CN(C(=O)C12C3C4C1C1C2C3C41C#N)C(C)(C)C (stereo not drawn)
- GI50 (M14): > 100 µM (inactive)
- GI50 (SK-OV-3): > 100 µM (inactive)
- GI50 (UO-31): > 100 µM (inactive)
- GI50 (OVCAR-8): > 100 µM (inactive)
- GI50 (RPMI-8226): > 100 µM (inactive)
- GI50 (NCI-H460): > 100 µM (inactive)
- GI50 (OVCAR-4): > 100 µM (inactive)
- GI50 (NCI-H522): > 100 µM (inactive)
- GI50 (EKVX): > 100 µM (inactive)
- GI50 (SK-MEL-28): > 100 µM (inactive)
- GI50 (SW-620): > 100 µM (inactive)
- GI50 (HL-60): > 100 µM (inactive)
- GI50 (OVCAR-3): > 100 µM (inactive)
- GI50 (K562): > 100 µM (inactive)
- GI50 (LXFL 529): > 100 µM (inactive)
- GI50 (SK-MEL-2): > 100 µM (inactive)
- GI50 (U-251): > 100 µM (inactive)
- GI50 (OVCAR-5): > 100 µM (inactive)
- GI50 (Malme-3M): > 100 µM (inactive)
- GI50 (HT-29): > 100 µM (inactive)
- GI50 (CCRF-CEM): > 100 µM (inactive)
- GI50 (RXF 631): > 100 µM (inactive)
- GI50 (UACC-257): > 100 µM (inactive)
- GI50 (M19-MEL): > 100 µM (inactive)
- GI50 (DMS-114): > 100 µM (inactive)
- GI50 (COLO 205): > 100 µM (inactive)
- GI50 (A549): > 100 µM (inactive)
- GI50 (HCT-116): > 100 µM (inactive)
- GI50 (DLD-1): > 100 µM (inactive)
- GI50 (DMS-273): > 100 µM (inactive)
- GI50 (SF-268): > 100 µM (inactive)
- GI50 (TK-10): > 100 µM (inactive)
- GI50 (IGROV-1): > 100 µM (inactive)
- GI50 (SK-MEL-5): > 100 µM (inactive)
- GI50 (KM12): > 100 µM (inactive)
- GI50 (KM-20L2): > 100 µM (inactive)
- GI50 (SNB-78): > 100 µM (inactive)
- GI50 (SF-539): > 100 µM (inactive)
- GI50 (ACHN): > 100 µM (inactive)
- GI50 (786-0): > 100 µM (inactive)
- GI50 (UACC-62): > 100 µM (inactive)
- GI50 (SF-295): > 100 µM (inactive)
- GI50 (SNB-75): 69.2 µM (inactive)
- GI50 (NCI-H23): > 100 µM (inactive)
- GI50 (NCI-H226): > 100 µM (inactive)
- GI50 (LOX IMVI): > 100 µM (inactive)
- GI50 (MOLT-4): > 100 µM (inactive)
- GI50 (SN12C): > 100 µM (inactive)
- GI50 (SNB-19): > 100 µM (inactive)
- GI50 (HOP-62): > 100 µM (inactive)
- GI50 (HCC 2998): > 100 µM (inactive)
- GI50 (CAKI-1): > 100 µM (inactive)
- GI50 (A498): > 100 µM (inactive)

Compound: CCC1(O)CC(c2ccccc2)N(C)C(c2ccccc2)C1 (stereo not drawn)
- GI50 (M14): > 100 µM (inactive)
- GI50 (SK-OV-3): > 100 µM (inactive)
- GI50 (UO-31): > 100 µM (inactive)
- GI50 (OVCAR-8): > 100 µM (inactive)
- GI50 (NCI-H460): > 100 µM (inactive)
- GI50 (OVCAR-4): > 100 µM (inactive)
- GI50 (NCI-H522): 94 µM (inactive)
- GI50 (EKVX): > 100 µM (inactive)
- GI50 (SK-MEL-28): > 100 µM (inactive)
- GI50 (SW-620): > 100 µM (inactive)
- GI50 (HL-60): 69.2 µM (inactive)
- GI50 (OVCAR-3): > 100 µM (inactive)
- GI50 (HOP-92): > 100 µM (inactive)
- GI50 (K562): 94.2 µM (inactive)
- GI50 (LXFL 529): > 100 µM (inactive)
- GI50 (SK-MEL-2): > 100 µM (inactive)
- GI50 (U-251): > 100 µM (inactive)
- GI50 (OVCAR-5): > 100 µM (inactive)
- GI50 (Malme-3M): > 100 µM (inactive)
- GI50 (HT-29): 97.9 µM (inactive)
- GI50 (CCRF-CEM): > 100 µM (inactive)
- GI50 (RXF 631): > 100 µM (inactive)
- GI50 (UACC-257): > 100 µM (inactive)
- GI50 (M19-MEL): > 100 µM (inactive)
- GI50 (DMS-114): > 100 µM (inactive)
- GI50 (COLO 205): > 100 µM (inactive)
- GI50 (A549): > 100 µM (inactive)
- GI50 (HCT-116): 86.9 µM (inactive)
- GI50 (DLD-1): > 100 µM (inactive)
- GI50 (DMS-273): > 100 µM (inactive)
- GI50 (SF-268): > 100 µM (inactive)
- GI50 (TK-10): > 100 µM (inactive)
- GI50 (IGROV-1): > 100 µM (inactive)
- GI50 (SK-MEL-5): > 100 µM (inactive)
- GI50 (KM12): > 100 µM (inactive)
- GI50 (KM-20L2): > 100 µM (inactive)
- GI50 (SNB-78): > 100 µM (inactive)
- GI50 (SF-539): > 100 µM (inactive)
- GI50 (ACHN): > 100 µM (inactive)
- GI50 (786-0): > 100 µM (inactive)
- GI50 (RXF 393): > 100 µM (inactive)
- GI50 (UACC-62): > 100 µM (inactive)
- GI50 (SF-295): > 100 µM (inactive)
- GI50 (SNB-75): > 100 µM (inactive)
- GI50 (NCI-H23): > 100 µM (inactive)
- GI50 (NCI-H226): > 100 µM (inactive)
- GI50 (LOX IMVI): > 100 µM (inactive)
- GI50 (MOLT-4): > 100 µM (inactive)
- GI50 (SN12C): > 100 µM (inactive)
- GI50 (SNB-19): > 100 µM (inactive)
- GI50 (HOP-62): > 100 µM (inactive)
- GI50 (HCC 2998): > 100 µM (inactive)
- GI50 (CAKI-1): > 100 µM (inactive)
- GI50 (HCT-15): > 100 µM
- GI50 (A498): > 100 µM (inactive)

From ChEMBL document CHEMBL1201862, “PubChem BioAssay data set” (2004)
